Target: human GPR40 receptor (Homo sapiens, UniProt O14842)
Test: Assay I: IP1 accumulation (IPOne HTRF) in 1321N1 cells stably expressing human GPR40
Assay type: cell-based
Details: 1321N1 cells expressing human GPR40, stimulation 1 hour at 37° C., 10% CO2, final LiCl 50 mM
Description: IP1 accumulation measurements using the IPOne assay system—1321N1 cells stably expressing human GPR40 receptor (Euroscreen, Belgium) are seeded 24 h before the assay in black clear-bottom collagen-coated 384-well plates in culture medium containing 10% FCS, 1% Na-Pyruvate and 400 μg/mL G418. IP1 is assayed according to the Manufacturers description (Cisbio Bioassays, France). In brief, the assay is started by substitution of the culture medium by stimulation buffer (Hepes 10 mM, CaCl2 1 mM, MgCl2 0.5 mM, KCl 4.2 mM, NaCl 146 mM and glucose 5.5 mM, pH 7.4) without LiCl. Cells are stimulated for 1 hour at 37° C., 10% CO2 by addition of the compounds that are diluted in stimulation buffer containing LiCl yielding a final LiCl concentration of 50 mM. Assays are stopped by adding HTRF-conjugates (IP1-d2 and Anti-IP1 cryptate Tb) and lysis buffer, provided by the manufacturer. After an incubation time of 1 hour at room temperature plates are measured using an EnVision™, Perkin Elmer. The obtained fluorescence ratios at 665/615 nM are then used to calculate the pEC50 values using GraphPad Prism 5 (Graphpad Software Inc, USA) by interpolation using an IP1 reference curve and subsequent sigmoidal curve fitting allowing for a variable hill slope.

Sequence of human GPR40 receptor (O14842 whole entry): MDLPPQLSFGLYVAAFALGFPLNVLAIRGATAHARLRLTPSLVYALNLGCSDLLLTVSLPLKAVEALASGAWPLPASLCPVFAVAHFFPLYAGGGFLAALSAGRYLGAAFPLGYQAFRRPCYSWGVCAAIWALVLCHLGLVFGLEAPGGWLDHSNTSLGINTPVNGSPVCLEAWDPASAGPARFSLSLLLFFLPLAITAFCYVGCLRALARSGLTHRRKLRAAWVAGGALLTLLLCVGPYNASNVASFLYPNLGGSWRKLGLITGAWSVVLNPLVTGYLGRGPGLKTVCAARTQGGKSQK

Structure (SMILES) | EC50 [nM]
Cc1cc(OCCS(C)(=O)=O)cc(C)c1-c1ccc(F)c2c1CC[C@H]2Oc1ccc2c(c1)OC[C@H]2CC(=O)O [Example 6, 2-((S)-6-((R)-4-(2,6-Dimethyl-4-(2-(methylsulfonyl)ethoxy)phenyl)-7-fluoro-2,3-dihydro-1H-inden-1-yloxy)-2,3-dihydrobenzofuran-3-yl)acetic acid] | 22
Cc1cc(OC2CCOCC2)cc(C)c1-c1ccc(F)c2c1CC[C@H]2Oc1ccc2c(c1)OC[C@H]2CC(=O)O [Example 7, 2-((S)-6-((R)-4-(2,6-Dimethyl-4-(tetrahydro-2H-pyran-4-yloxy)phenyl)-7-fluoro-2,3-dihydro-1H-inden-1-yloxy)-2,3-dihydrobenzofuran-3-yl)acetic acid] | 6
Cc1cc(O[C@H]2CCOC2)cc(C)c1-c1ccc(F)c2c1CC[C@H]2Oc1ccc2c(c1)OC[C@H]2CC(=O)O [Example 8, 2-((S)-6-((R)-4-(2,6-Dimethyl-4-((S)-tetrahydrofuran-3-yloxy)phenyl)-7-fluoro-2,3-dihydro-1H-inden-1-yloxy)-2,3-dihydrobenzofuran-3-yl)acetic acid] | 4
Cc1cc(O[C@@H]2CCOC2)cc(C)c1-c1ccc(F)c2c1CC[C@H]2Oc1ccc2c(c1)OC[C@H]2CC(=O)O [Example 9, 2-((S)-6-((R)-4-(2,6-Dimethyl-4-((R)-tetrahydrofuran-3-yloxy)phenyl)-7-fluoro-2,3-dihydro-1H-inden-1-yloxy)-2,3-dihydrobenzofuran-3-yl)acetic acid] | 9
Cc1cc(OCC(C)(C)O)cc(C)c1-c1ccc(F)c2c1CC[C@H]2Oc1ccc2c(c1)OC[C@H]2CC(=O)O [Example 10, 2-((S)-6-((R)-7-Fluoro-4-(4-(2-hydroxy-2-methylpropoxy)-2,6-dimethylphenyl)-2,3-dihydro-1H-inden-1-yloxy)-2,3-dihydrobenzofuran-3-yl)acetic acid] | 9
Cc1cc(OC2CCC(O)C2)cc(C)c1-c1ccc(F)c2c1CC[C@H]2Oc1ccc2c(c1)OC[C@H]2CC(=O)O (stereo partly drawn) [Example 11, 2-((3S)-6-((1R)-7-Fluoro-4-(4-(3-hydroxycyclopentyloxy)-2,6-dimethylphenyl)-2,3-dihydro-1H-inden-1-yloxy)-2,3-dihydrobenzofuran-3-yl)acetic acid] | 5
CNC(=O)COc1cc(C)c(-c2ccc(F)c3c2CC[C@H]3Oc2ccc3c(c2)OC[C@H]3CC(=O)O)c(C)c1 [Example 12, 2-((S)-6-((R)-4-(2,6-Dimethyl-4-(2-(methylamino)-2-oxoethoxy)phenyl)-7-fluoro-2,3-dihydro-1H-inden-1-yloxy)-2,3-dihydrobenzofuran-3-yl)acetic acid] | 12
Cc1cc(OCC(=O)N(C)C)cc(C)c1-c1ccc(F)c2c1CC[C@H]2Oc1ccc2c(c1)OC[C@H]2CC(=O)O [Example 13, 2-((S)-6-((R)-4-(4-(2-(Dimethylamino)-2-oxoethoxy)-2,6-dimethylphenyl)-7-fluoro-2,3-dihydro-1H-inden-1-yloxy)-2,3-dihydrobenzofuran-3-yl)acetic acid] | 63
Cc1cc(OCC(N)=O)cc(C)c1-c1ccc(F)c2c1CC[C@H]2Oc1ccc2c(c1)OC[C@H]2CC(=O)O [Example 14, 2-((S)-6-((R)-4-(4-(2-Amino-2-oxoethoxy)-2,6-dimethylphenyl)-7-fluoro-2,3-dihydro-1H-inden-1-yloxy)-2,3-dihydrobenzofuran-3-yl)acetic acid] | 14
Cc1cc(OCC(C)(C)CO)cc(C)c1-c1ccc(F)c2c1CC[C@H]2Oc1ccc2c(c1)OC[C@H]2CC(=O)O [Example 15, 2-((S)-6-((R)-7-Fluoro-4-(4-(3-hydroxy-2,2-dimethylpropoxy)-2,6-dimethylphenyl)-2,3-dihydro-1H-inden-1-yloxy)-2,3-dihydrobenzofuran-3-yl)acetic acid] | 5
COCC(C)(C)COc1cc(C)c(-c2ccc(F)c3c2CC[C@H]3Oc2ccc3c(c2)OC[C@H]3CC(=O)O)c(C)c1 [Example 16, 2-((S)-6-((R)-7-Fluoro-4-(4-(3-methoxy-2,2-dimethylpropoxy)-2,6-dimethylphenyl)-2,3-dihydro-1H-inden-1-yloxy)-2,3-dihydrobenzofuran-3-yl)acetic acid] | 5
Cc1cc(-c2cncnc2)cc(C)c1-c1ccc(F)c2c1CC[C@H]2Oc1ccc2c(c1)OC[C@H]2CC(=O)O [Example 17, 2-((S)-6-((R)-4-(2,6-Dimethyl-4-(pyrimidin-5-yl)phenyl)-7-fluoro-2,3-dihydro-1H-inden-1-yloxy)-2,3-dihydrobenzofuran-3-yl)acetic acid] | 4
Cc1cc(-c2ncco2)cc(C)c1-c1ccc(F)c2c1CC[C@H]2Oc1ccc2c(c1)OC[C@H]2CC(=O)O [Example 18, 2-((S)-6-((R)-4-(2,6-Dimethyl-4-(oxazol-2-yl)phenyl)-7-fluoro-2,3-dihydro-1H-inden-1-yloxy)-2,3-dihydrobenzofuran-3-yl)acetic acid] | 4
Cc1cc(-c2cnn(C)c2)cc(C)c1-c1ccc(F)c2c1CC[C@H]2Oc1ccc2c(c1)OC[C@H]2CC(=O)O [Example 19, 2-((S)-6-((R)-4-(2,6-Dimethyl-4-(1-methyl-1H-pyrazol-4-yl)phenyl)-7-fluoro-2,3-dihydro-1H-inden-1-yloxy)-2,3-dihydrobenzofuran-3-yl)acetic acid] | 3
Cc1cc(-c2ccnn2C)cc(C)c1-c1ccc(F)c2c1CC[C@H]2Oc1ccc2c(c1)OC[C@H]2CC(=O)O [Example 20, 2-((S)-6-((R)-4-(2,6-Dimethyl-4-(1-methyl-1H-pyrazol-5-yl)phenyl)-7-fluoro-2,3-dihydro-1H-inden-1-yloxy)-2,3-dihydrobenzofuran-3-yl)acetic acid] | 9
Cc1cc(OC(C)(C)C#N)cc(C)c1-c1ccc(F)c2c1CC[C@H]2Oc1ccc2c(c1)OC[C@H]2CC(=O)O [Example 21, 2-((S)-6-((R)-4-(4-(2-Cyanopropan-2-yloxy)-2,6-dimethylphenyl)-7-fluoro-2,3-dihydro-1H-inden-1-yloxy)-2,3-dihydrobenzofuran-3-yl)acetic acid] | 9
Cc1cc(OCC(C)(C)CN(C)C)cc(C)c1-c1ccc(F)c2c1CC[C@H]2Oc1ccc2c(c1)OC[C@H]2CC(=O)O [Example 22, 2-((S)-6-((R)-4-(4-(3-(Dimethylamino)-2,2-dimethylpropoxy)-2,6-dimethylphenyl)-7-fluoro-2,3-dihydro-1H-inden-1-yloxy)-2,3-dihydrobenzofuran-3-yl)acetic acid] | 17
Cc1cc(OCCN2CCCC2=O)cc(C)c1-c1ccc(F)c2c1CC[C@H]2Oc1ccc2c(c1)OC[C@H]2CC(=O)O [Example 23, 2-((S)-6-((R)-4-(2,6-Dimethyl-4-(2-(2-oxopyrrolidin-1-yl)ethoxy)phenyl)-7-fluoro-2,3-dihydro-1H-inden-1-yloxy)-2,3-dihydrobenzofuran-3-yl)acetic acid] | 10
Cc1cc(C2=CCOCC2)cc(C)c1-c1ccc(F)c2c1CC[C@H]2Oc1ccc2c(c1)OC[C@H]2CC(=O)O [Example 24, 2-((S)-6-((R)-4-(4-(3,6-dihydro-2H-pyran-4-yl)-2,6-dimethylphenyl)-7-fluoro-2,3-dihydro-1H-inden-1-yloxy)-2,3-dihydrobenzofuran-3-yl)acetic acid] | 3
Cc1cc(C2=CCN(S(C)(=O)=O)CC2)cc(C)c1-c1ccc(F)c2c1CC[C@H]2Oc1ccc2c(c1)OC[C@H]2CC(=O)O [Example 25, 2-((S)-6-((R)-4-(2,6-dimethyl-4-(1-(methylsulfonyl)-1,2,3,6-tetrahydropyridin-4-yl)phenyl)-7-fluoro-2,3-dihydro-1H-inden-1-yloxy)-2,3-dihydrobenzofuran-3-yl)acetic acid] | 35
Cc1cc(OC2CN(S(C)(=O)=O)C2)cc(C)c1-c1ccc(F)c2c1CC[C@H]2Oc1ccc2c(c1)OC[C@H]2CC(=O)O [Example 26, 2-((S)-6-((R)-4-(2,6-Dimethyl-4-(1-(methylsulfonyl)azetidin-3-yloxy)phenyl)-7-fluoro-2,3-dihydro-1H-inden-1-yloxy)-2,3-dihydrobenzofuran-3-yl)acetic acid] | 17
Cc1cc(OCC2CCS(=O)(=O)C2)cc(C)c1-c1ccc(F)c2c1CC[C@H]2Oc1ccc2c(c1)OC[C@H]2CC(=O)O (stereo partly drawn) [Example 27, 2-((3S)-6-((1R)-4-(2,6-Dimethyl-4-((1,1-dioxo-tetrahydrothiophen-3-yl)methoxy)phenyl)-7-fluoro-2,3-dihydro-1H-inden-1-yloxy)-2,3-dihydrobenzofuran-3-yl)acetic acid] | 9
Cc1cc(OCC2CCS(=O)(=O)CC2)cc(C)c1-c1ccc(F)c2c1CC[C@H]2Oc1ccc2c(c1)OC[C@H]2CC(=O)O [Example 28, 2-((S)-6-((R)-4-(2,6-Dimethyl-4-((1,1-dioxo-tetrahydro-2H-thiopyran-4-yl)methoxy)phenyl)-7-fluoro-2,3-dihydro-1H-inden-1-yloxy)-2,3-dihydrobenzofuran-3-yl)acetic acid] | 6
Cc1cc(OCC2CN(S(C)(=O)=O)C2)cc(C)c1-c1ccc(F)c2c1CC[C@H]2Oc1ccc2c(c1)OC[C@H]2CC(=O)O [Example 29, 2-((S)-6-((R)-4-(2,6-Dimethyl-4-((1-(methylsulfonyl)azetidin-3-yl)methoxy)phenyl)-7-fluoro-2,3-dihydro-1H-inden-1-yloxy)-2,3-dihydrobenzofuran-3-yl)acetic acid] | 11

Source: patent publication US8642585B2, “Indanyloxydihydrobenzofuranylacetic acids” (Boehringer Ingelheim International GmbH, priority 2012, dated 2014)
